Values quoted from earlier work, collected in patent US20100239665A1 (priority 2007, published 2010).

solubility in water: practically insoluble in water
Compound: COCCOC(=O)C1=C(C)NC(C)=C(C(=O)OC(C)C)C1c1cccc([N+](=O)[O-])c1 (stereo not shown) [Nimodipine]
